Test results published in EP4745137A1 (Gluetacs Therapeutics (Shanghai) Co., Ltd., priority 2023, dated 2025).

Tests used:
WEE1 = biological target: T1, WEE1 (Homo sapiens, UniProt P30291+Q96SW2); assay: Western-blot assay of substrate protein degradation in hPBMCs, WEE1; assay type: cell-based; settings: 24 hours of compound treatment, compounds tested at 50 nM and 500 nM (concentration of the table not stated)
T1 construct: endogenous in cells; host or cells: hPBMCs (Milecell Biotechnologies)
T1 sequence (P30291 whole entry): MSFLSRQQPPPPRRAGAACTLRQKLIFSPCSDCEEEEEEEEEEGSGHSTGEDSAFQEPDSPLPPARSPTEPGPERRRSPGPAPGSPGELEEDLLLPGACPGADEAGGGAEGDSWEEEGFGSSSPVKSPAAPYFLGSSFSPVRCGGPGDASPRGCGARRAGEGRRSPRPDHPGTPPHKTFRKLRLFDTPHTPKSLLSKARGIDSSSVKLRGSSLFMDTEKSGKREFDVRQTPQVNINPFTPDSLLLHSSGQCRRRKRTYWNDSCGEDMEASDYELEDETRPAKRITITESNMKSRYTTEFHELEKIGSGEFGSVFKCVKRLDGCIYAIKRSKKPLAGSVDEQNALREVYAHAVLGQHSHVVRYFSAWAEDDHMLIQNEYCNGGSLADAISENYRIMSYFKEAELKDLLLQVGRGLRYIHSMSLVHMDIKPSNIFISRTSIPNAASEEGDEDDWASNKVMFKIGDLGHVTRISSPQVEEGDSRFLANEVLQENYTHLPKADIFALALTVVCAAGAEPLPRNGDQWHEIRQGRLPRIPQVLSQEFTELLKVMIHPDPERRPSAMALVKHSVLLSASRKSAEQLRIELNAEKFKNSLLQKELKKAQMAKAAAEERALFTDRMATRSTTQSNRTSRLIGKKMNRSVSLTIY
T1 sequence (Q96SW2 whole entry): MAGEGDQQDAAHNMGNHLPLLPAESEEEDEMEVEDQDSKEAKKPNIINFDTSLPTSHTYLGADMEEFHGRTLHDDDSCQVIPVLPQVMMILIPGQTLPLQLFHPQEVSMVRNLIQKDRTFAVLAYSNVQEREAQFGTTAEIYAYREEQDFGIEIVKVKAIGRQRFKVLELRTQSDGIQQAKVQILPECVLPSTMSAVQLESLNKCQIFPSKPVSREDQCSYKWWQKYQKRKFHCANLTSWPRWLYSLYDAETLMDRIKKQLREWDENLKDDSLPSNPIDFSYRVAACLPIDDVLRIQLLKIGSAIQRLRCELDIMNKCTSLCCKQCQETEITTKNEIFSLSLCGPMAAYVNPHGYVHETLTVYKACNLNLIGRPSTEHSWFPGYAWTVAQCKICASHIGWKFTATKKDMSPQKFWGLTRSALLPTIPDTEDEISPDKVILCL
T1 sequence (Q16531 whole entry partner): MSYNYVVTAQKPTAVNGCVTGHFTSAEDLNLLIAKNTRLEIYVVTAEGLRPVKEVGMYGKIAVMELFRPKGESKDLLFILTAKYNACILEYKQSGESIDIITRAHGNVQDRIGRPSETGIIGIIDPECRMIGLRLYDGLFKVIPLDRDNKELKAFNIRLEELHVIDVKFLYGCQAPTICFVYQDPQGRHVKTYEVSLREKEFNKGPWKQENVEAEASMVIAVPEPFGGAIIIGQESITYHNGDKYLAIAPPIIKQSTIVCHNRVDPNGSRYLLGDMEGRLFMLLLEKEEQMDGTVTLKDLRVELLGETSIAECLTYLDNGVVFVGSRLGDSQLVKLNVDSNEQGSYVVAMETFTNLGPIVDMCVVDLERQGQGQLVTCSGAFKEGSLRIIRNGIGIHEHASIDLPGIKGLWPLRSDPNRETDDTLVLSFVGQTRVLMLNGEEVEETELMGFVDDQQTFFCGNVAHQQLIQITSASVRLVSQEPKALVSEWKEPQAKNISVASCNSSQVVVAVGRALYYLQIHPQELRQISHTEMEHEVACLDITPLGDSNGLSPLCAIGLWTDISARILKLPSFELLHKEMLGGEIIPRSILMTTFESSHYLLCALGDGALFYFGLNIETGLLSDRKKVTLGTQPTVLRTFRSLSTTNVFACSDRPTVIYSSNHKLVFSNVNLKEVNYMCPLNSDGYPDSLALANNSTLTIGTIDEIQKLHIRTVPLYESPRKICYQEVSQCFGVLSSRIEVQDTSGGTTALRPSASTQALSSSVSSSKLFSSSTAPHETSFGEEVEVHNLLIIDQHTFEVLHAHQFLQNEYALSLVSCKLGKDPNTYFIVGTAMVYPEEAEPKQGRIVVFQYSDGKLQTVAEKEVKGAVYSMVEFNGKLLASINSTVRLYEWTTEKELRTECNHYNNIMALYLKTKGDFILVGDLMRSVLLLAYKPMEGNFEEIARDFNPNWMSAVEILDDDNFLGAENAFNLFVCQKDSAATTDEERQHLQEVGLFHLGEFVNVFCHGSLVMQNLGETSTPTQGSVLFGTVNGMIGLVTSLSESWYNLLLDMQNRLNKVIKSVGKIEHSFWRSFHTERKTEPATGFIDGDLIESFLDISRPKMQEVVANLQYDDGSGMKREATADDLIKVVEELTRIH

IKZF1 = biological target: T2, IKZF1 (Homo sapiens, UniProt Q13422+Q96SW2); assay: Western-blot assay of substrate protein degradation in hPBMCs, IKZF1; assay type: cell-based; settings: 24 hours of compound treatment, compounds tested at 50 nM and 500 nM (concentration of the table not stated)
T2 construct: endogenous in cells; host or cells: hPBMCs (Milecell Biotechnologies)

IKZF2 = biological target: T3, IKZF2 (Homo sapiens, UniProt Q96SW2+Q9UKS7); assay: Western-blot assay of substrate protein degradation in hPBMCs, IKZF2; assay type: cell-based; settings: 24 hours of compound treatment, compounds tested at 50 nM and 500 nM (concentration of the table not stated)
T3 construct: endogenous in cells; host or cells: hPBMCs (Milecell Biotechnologies)
T3 sequence (Q9UKS7 whole entry): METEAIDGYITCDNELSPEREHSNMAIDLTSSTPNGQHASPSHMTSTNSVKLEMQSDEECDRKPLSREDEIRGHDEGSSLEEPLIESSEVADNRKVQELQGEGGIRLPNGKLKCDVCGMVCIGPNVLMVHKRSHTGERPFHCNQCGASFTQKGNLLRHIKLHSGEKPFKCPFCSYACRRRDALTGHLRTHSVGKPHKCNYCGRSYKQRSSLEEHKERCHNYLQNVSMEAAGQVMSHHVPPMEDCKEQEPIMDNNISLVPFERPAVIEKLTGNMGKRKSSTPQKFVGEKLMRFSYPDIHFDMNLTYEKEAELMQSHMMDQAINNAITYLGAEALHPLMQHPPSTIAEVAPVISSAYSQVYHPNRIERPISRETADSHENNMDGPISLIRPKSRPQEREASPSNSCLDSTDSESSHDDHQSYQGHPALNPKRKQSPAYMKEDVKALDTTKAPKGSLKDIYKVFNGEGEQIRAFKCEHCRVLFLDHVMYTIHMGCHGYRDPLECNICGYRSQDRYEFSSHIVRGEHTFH
T3 sequence (Q96SW2 whole entry): as the sequence (Q96SW2 whole entry) above
T3 sequence (Q16531 whole entry partner): as the sequence (Q16531 whole entry partner) above

IKZF3 = biological target: T4, IKZF3 (Homo sapiens, UniProt Q96SW2+Q9UKT9); assay: Western-blot assay of substrate protein degradation in hPBMCs, IKZF3; assay type: cell-based; settings: 24 hours of compound treatment, compounds tested at 50 nM and 500 nM (concentration of the table not stated)
T4 construct: endogenous in cells; host or cells: hPBMCs (Milecell Biotechnologies)
T4 sequence (Q9UKT9 whole entry): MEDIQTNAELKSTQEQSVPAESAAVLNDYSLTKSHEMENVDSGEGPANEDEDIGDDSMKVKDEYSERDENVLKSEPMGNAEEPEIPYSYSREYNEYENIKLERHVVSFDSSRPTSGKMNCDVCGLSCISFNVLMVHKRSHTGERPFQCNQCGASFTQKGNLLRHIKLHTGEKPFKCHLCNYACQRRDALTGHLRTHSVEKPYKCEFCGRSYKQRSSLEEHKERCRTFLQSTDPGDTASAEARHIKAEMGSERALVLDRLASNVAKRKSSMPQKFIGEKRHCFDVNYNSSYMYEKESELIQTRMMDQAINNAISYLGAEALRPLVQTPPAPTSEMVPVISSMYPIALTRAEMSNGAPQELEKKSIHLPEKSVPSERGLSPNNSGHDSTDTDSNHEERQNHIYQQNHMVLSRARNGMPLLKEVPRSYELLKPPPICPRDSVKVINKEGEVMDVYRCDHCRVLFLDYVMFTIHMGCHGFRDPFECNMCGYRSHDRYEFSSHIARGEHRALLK
T4 sequence (Q96SW2 whole entry): as the sequence (Q96SW2 whole entry) above
T4 sequence (Q16531 whole entry partner): as the sequence (Q16531 whole entry partner) above

CK1α = biological target: T5, CK1α (Homo sapiens, UniProt P48729+Q96SW2); assay: Western-blot assay of substrate protein degradation in hPBMCs, CK1α; assay type: cell-based; settings: 24 hours of compound treatment, compounds tested at 50 nM and 500 nM (concentration of the table not stated)
T5 construct: endogenous in cells; host or cells: hPBMCs (Milecell Biotechnologies)
T5 sequence (P48729 whole entry): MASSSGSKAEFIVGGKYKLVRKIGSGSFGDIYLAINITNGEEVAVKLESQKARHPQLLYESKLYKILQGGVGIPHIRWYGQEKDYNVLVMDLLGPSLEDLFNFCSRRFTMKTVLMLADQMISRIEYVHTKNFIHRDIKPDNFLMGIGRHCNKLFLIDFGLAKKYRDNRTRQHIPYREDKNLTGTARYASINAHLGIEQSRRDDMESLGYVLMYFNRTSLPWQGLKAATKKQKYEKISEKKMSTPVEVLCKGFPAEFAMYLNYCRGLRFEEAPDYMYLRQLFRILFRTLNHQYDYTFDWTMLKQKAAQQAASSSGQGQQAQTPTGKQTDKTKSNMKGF
T5 sequence (Q96SW2 whole entry): as the sequence (Q96SW2 whole entry) above
T5 sequence (Q16531 whole entry partner): as the sequence (Q16531 whole entry partner) above

GSPT1 = biological target: T6, GSPT1 (Homo sapiens, UniProt P15170+Q96SW2); assay: Western-blot assay of substrate protein degradation in hPBMCs, GSPT1; assay type: cell-based; settings: 24 hours of compound treatment, compounds tested at 50 nM and 500 nM (concentration of the table not stated)
T6 construct: endogenous in cells; host or cells: hPBMCs (Milecell Biotechnologies)
T6 sequence (P15170 whole entry): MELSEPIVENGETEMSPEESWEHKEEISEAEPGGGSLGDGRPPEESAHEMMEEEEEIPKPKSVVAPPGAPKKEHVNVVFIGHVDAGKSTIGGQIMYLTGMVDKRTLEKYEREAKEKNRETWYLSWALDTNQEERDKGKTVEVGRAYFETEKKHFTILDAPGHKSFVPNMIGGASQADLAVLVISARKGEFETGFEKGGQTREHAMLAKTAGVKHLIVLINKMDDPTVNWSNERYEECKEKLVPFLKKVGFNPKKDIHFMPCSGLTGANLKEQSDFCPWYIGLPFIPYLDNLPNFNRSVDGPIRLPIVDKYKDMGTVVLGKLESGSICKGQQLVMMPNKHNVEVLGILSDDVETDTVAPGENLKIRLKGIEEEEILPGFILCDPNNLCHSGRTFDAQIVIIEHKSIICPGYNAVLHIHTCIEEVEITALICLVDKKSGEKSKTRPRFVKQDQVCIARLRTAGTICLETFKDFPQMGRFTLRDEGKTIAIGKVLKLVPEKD
T6 sequence (Q96SW2 whole entry): as the sequence (Q96SW2 whole entry) above
T6 sequence (Q16531 whole entry partner): as the sequence (Q16531 whole entry partner) above

[1] = biological target: T7, human Cereblon WT GST-tagged protein (Homo sapiens, UniProt Q96SW2); assay: CRBN-binding affinity by HTRF (CEREBLON BINDING kit); settings: HTRF inhibitory activity, CEREBLON BINDING kit; read-out: HTRF IC50
T7 construct: purchased CISBIO 64BDCRBNPEH
T7 sequence (Q96SW2 whole entry): as the sequence (Q96SW2 whole entry) above

TMD8 = assay: Tumor cell proliferation inhibition (CellTiter-Meiluncell Luminescent Cell Viability Assay), TMD8; settings: Homo sapiens, TMD8, 96 h, read-out: inhibitory activity (IC50, nM) against tumor cells proliferation, TMD8
[2] = tested on: Human acute T lymphocytic leukemia cells (Molt-4); assay: Tumor cell proliferation inhibition (CellTiter-Meiluncell Luminescent Cell Viability Assay), Molt-4; settings: MOLT-4, 96 h, read-out: inhibitory activity (IC50, nM) against tumor cells proliferation, Molt 4
NCI-H1975 = assay: Tumor cell proliferation inhibition (CellTiter-Meiluncell Luminescent Cell Viability Assay), NCI-H1975; settings: Homo sapiens, NCI-H1975, 96 h, read-out: inhibitory activity (IC50, nM) against tumor cells proliferation, H1975
[3] = tested on: Human breast cancer cells (MDA-MB-231); assay: Tumor cell proliferation inhibition (CellTiter-Meiluncell Luminescent Cell Viability Assay), MDA-MB-231; settings: MDA-MB-231, 96 h, read-out: inhibitory activity (IC50, nM) against tumor cells proliferation, MDA-MB-231

Structure (SMILES) | Weel substrate protein remaining % (WEE1) | IKZF 1 substrate protein remaining % (IKZF1) | IKZF2 substrate protein remaining % (IKZF2) | IKZF3 substrate protein remaining % (IKZF3) | CK1a substrate protein remaining % (CK1α) | GSPT1 substrate protein remaining % (GSPT1) | IC50 [1] [nM] | IC50 (TMD8) [nM] | IC50 [2] [nM] | IC50 (NCI-H1975) [nM] | IC50 [3] [nM]
O=C1CCC(N2Cc3cc(CN4CC(=C5CCOc6cc(F)ccc65)C4)ccc3C2=O)C(=O)N1 (stereo not shown) [GT-04701, 3-(5-((3-(7-fluorochroman-4-ylidene)azetidin-1-yl)methyl)-1-oxoisoindolin-2-yl)piperidine-2,6-dione] | A (0% ≤ substrate protein remaining % ≤ 80%) | A (0% ≤ substrate protein remaining % ≤ 80%) | A (0% ≤ substrate protein remaining % ≤ 80%) | A (0% ≤ substrate protein remaining % ≤ 80%) | A (0% ≤ substrate protein remaining % ≤ 80%) | A (0% ≤ substrate protein remaining % ≤ 80%) | < 500 | 50 to 100 | 1 to 5 | 50 to 100 | 10 to 50
Cc1cc2c(C3=CCN(Cc4ccc5c(c4)CN(C4CCC(=O)NC4=O)C5=O)CC3)ncnc2s1 (stereo not shown) [GT-04704, 3-(5-((4-(6-methylthieno[2,3-d]pyrimidin-4-yl)-3,6-dihydropyridin-1(2H)-yl)methyl)-1-oxoisoindolin-2-yl)piperidine-2,6-dione] | A (0% ≤ substrate protein remaining % ≤ 80%) | A (0% ≤ substrate protein remaining % ≤ 80%) | A (0% ≤ substrate protein remaining % ≤ 80%) | A (0% ≤ substrate protein remaining % ≤ 80%) | A (0% ≤ substrate protein remaining % ≤ 80%) | A (0% ≤ substrate protein remaining % ≤ 80%) | < 500 | 10 to 50 | 1 to 5 | 10 to 50 | 10 to 50
O=C1CCC(N2Cc3cc(CN4CC=C(c5ncc6ccsc6n5)CC4)ccc3C2=O)C(=O)N1 (stereo not shown) [GT-04708, 3-(1-oxo-5-((4-(thieno[2,3-d]pyrimidin-2-yl)-3,6-dihydropyridin-1(2H)-yl)methyl)isoindolin-2-yl)piperidine-2,6-dione] | A (0% ≤ substrate protein remaining % ≤ 80%) | B (80%< substrate protein remaining %≤ 100%) | B (80%< substrate protein remaining %≤ 100%) | B (80%< substrate protein remaining %≤ 100%) | A (0% ≤ substrate protein remaining % ≤ 80%) | A (0% ≤ substrate protein remaining % ≤ 80%) | 500 to 1000 | 10 to 50 | 1 to 5 | 10 to 50 | 5 to 10
O=C1CCC(N2Cc3cc(CN4CCC(c5c[nH]c6cc(F)ccc56)CC4)ccc3C2=O)C(=O)N1 (stereo not shown) [GT-04713, 3-(5-((4-(6-fluoro-1H-indol-3-yl)piperidin-1-yl)methyl)-1-oxoisoindolin-2-yl)piperidine-2,6-dione] | A (0% ≤ substrate protein remaining % ≤ 80%) | A (0% ≤ substrate protein remaining % ≤ 80%) | A (0% ≤ substrate protein remaining % ≤ 80%) | A (0% ≤ substrate protein remaining % ≤ 80%) | A (0% ≤ substrate protein remaining % ≤ 80%) | A (0% ≤ substrate protein remaining % ≤ 80%) | 500 to 1000 | 10 to 50 | 1 to 5 | 5 to 10 | 1 to 5
Cc1nc(C2=CCN(Cc3ccc4c(c3)CN(C3CCC(=O)NC3=O)C4=O)CC2)c2ccsc2n1 (stereo not shown) [GT-04718, 3-(5-((4-(2-methylthieno[2,3-d]pyrimidin-4-yl)-3,6-dihydropyridin-1(2H)-yl)methyl)-1-oxoisoindolin-2-yl)piperidine-2,6-dione] | A (0% ≤ substrate protein remaining % ≤ 80%) | A (0% ≤ substrate protein remaining % ≤ 80%) | A (0% ≤ substrate protein remaining % ≤ 80%) | A (0% ≤ substrate protein remaining % ≤ 80%) | B (80%< substrate protein remaining %≤ 100%) | A (0% ≤ substrate protein remaining % ≤ 80%) | 500 to 1000 | 10 to 50 | 1 to 5 | 10 to 50 | 5 to 10
Cn1cc(C2=CCN(Cc3ccc4c(c3)CN(C3CCC(=O)NC3=O)C4=O)CC2)c2ccc(F)cc21 (stereo not shown) [GT-04723, 3-(5-((4-(6-fluoro-1-methyl-1H-indol-3-yl)-3,6-dihydropyridin-1(2H)-yl)methyl)-1-oxoisoindolin-2-yl)piperidine-2,6-dione] | A (0% ≤ substrate protein remaining % ≤ 80%) | A (0% ≤ substrate protein remaining % ≤ 80%) | A (0% ≤ substrate protein remaining % ≤ 80%) | A (0% ≤ substrate protein remaining % ≤ 80%) | A (0% ≤ substrate protein remaining % ≤ 80%) | A (0% ≤ substrate protein remaining % ≤ 80%) | < 500 | 10 to 50 | 1 to 5 | 10 to 50 | 5 to 10
O=C1CCC(N2Cc3cc(CN4C[C@H]5C[C@@H]4CN5c4cccc(Cl)c4Cl)ccc3C2=O)C(=O)N1 (stereo partly drawn) [GT-04724, 3-(5-(((1R,4R)-5-(2,3-dichlorophenyl)-2,5-diazabicyclo[2.2.1]heptan-2-yl)methyl)-1-oxoisoindolin-2-yl)piperidine-2,6-dione] | A (0% ≤ substrate protein remaining % ≤ 80%) | A (0% ≤ substrate protein remaining % ≤ 80%) | A (0% ≤ substrate protein remaining % ≤ 80%) | A (0% ≤ substrate protein remaining % ≤ 80%) | A (0% ≤ substrate protein remaining % ≤ 80%) | A (0% ≤ substrate protein remaining % ≤ 80%) | < 500 | 50 to 100 | 5 to 10 | 50 to 100 | 10 to 50
Cc1ccsc1C1=CCN(Cc2ccc3c(c2F)CN(C2CCC(=O)NC2=O)C3=O)CC1 (stereo not shown) [GT-04729, 3-(4-fluoro-5-((4-(3-methylthiophen-2-yl)-3,6-dihydropyridin-1(2H)-yl)methyl)-1-oxoisoindolin-2-yl)piperidine-2,6-dione] | A (0% ≤ substrate protein remaining % ≤ 80%) | A (0% ≤ substrate protein remaining % ≤ 80%) | A (0% ≤ substrate protein remaining % ≤ 80%) | A (0% ≤ substrate protein remaining % ≤ 80%) | B (80%< substrate protein remaining %≤ 100%) | A (0% ≤ substrate protein remaining % ≤ 80%) | 500 to 1000 | 10 to 50 | 1 to 5 | 10 to 50 | 1 to 5
